From PubChem BioAssay (NCI)
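GI50 = concentration required for 50% inhibition of growth. At the TGI there is no net growth.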

Columns and labels:
Test in all cases: DTP human tumour cell line panel, 384-well format
IGROV1 ovarian = system: IGROV1 ovarian
PC-3 prostate = system: PC-3 prostate
OVCAR-4 ovarian = system: OVCAR-4 ovarian
SK-MEL-5 melanoma = system: SK-MEL-5 melanoma
OVCAR-8 ovarian = system: OVCAR-8 ovarian
NCI-H522 lung = system: NCI-H522 lung
OVCAR-5 ovarian = system: OVCAR-5 ovarian
SN12C renal = system: SN12C renal
TK-10 renal = system: TK-10 renal
SK-MEL-28 melanoma = system: SK-MEL-28 melanoma
UACC-257 melanoma = system: UACC-257 melanoma
A498 renal = system: A498 renal
SW-620 colon = system: SW-620 colon
HT29 colon = system: HT29 colon
SF-295 CNS = system: SF-295 CNS
SNB-75 CNS = system: SNB-75 CNS
HOP-92 NSCLC = system: HOP-92 NSCLC
MDA-MB-435 melanoma = system: MDA-MB-435 melanoma
LOX IMVI melanoma = system: LOX IMVI melanoma
COLO 205 colon = system: COLO 205 colon
HCC-2998 colon = system: HCC-2998 colon
MOLT-4 leukemia = system: MOLT-4 leukemia
CAKI-1 renal = system: CAKI-1 renal
T-47D breast = system: T-47D breast
SF-539 CNS = system: SF-539 CNS
MDA-MB-468 breast = system: MDA-MB-468 breast
KM12 colon = system: KM12 colon
NCI-H460 NSCLC = system: NCI-H460 NSCLC
MALME-3M melanoma = system: MALME-3M melanoma
A549 NSCLC = system: A549 NSCLC
HS 578T breast = system: HS 578T breast
UO-31 renal = system: UO-31 renal
SR leukemia = system: SR leukemia
NCI-H322M lung = system: NCI-H322M lung
NCI/ADR-RES ovarian = system: NCI/ADR-RES ovarian
M14 melanoma = system: M14 melanoma
RPMI-8226 leukemia = system: RPMI-8226 leukemia
DU-145 prostate = system: DU-145 prostate
HL-60(TB) leukemia = system: HL-60(TB) leukemia
MCF7 breast = system: MCF7 breast
K-562 leukemia = system: K-562 leukemia
786-0 renal = system: 786-0 renal
CCRF-CEM leukemia = system: CCRF-CEM leukemia
SNB-19 CNS = system: SNB-19 CNS
NCI-H23 lung = system: NCI-H23 lung
MDA-MB-231 breast = system: MDA-MB-231 breast
EKVX NSCLC = system: EKVX NSCLC
ACHN renal = system: ACHN renal
SK-OV-3 ovarian = system: SK-OV-3 ovarian
RXF 393 renal = system: RXF 393 renal
UACC-62 melanoma = system: UACC-62 melanoma
U251 glioblastoma = system: U251 glioblastoma
SF-268 CNS = system: SF-268 CNS
NCI-H226 lung = system: NCI-H226 lung
HOP-62 NSCLC = system: HOP-62 NSCLC
HCT-15 colon = system: HCT-15 colon
OVCAR-3 ovarian = system: OVCAR-3 ovarian
BT-549 breast = system: BT-549 breast

In the case of `Cc1cc(N2CCOCC2)cc2[nH]c(-c3c(NC[C@@H](O)c4cccc(Cl)c4)cc[nH]c3=O)nc12`, the GI50 (IGROV1 ovarian) is reported as 1340 nM, the TGI (IGROV1 ovarian) is reported as 3.26 µM and the GI50 (PC-3 prostate) is reported as 3.18 µM. For the same compound, the TGI (PC-3 prostate) was 13.8 µM, the GI50 (OVCAR-4 ovarian) was 1830 nM and the TGI (OVCAR-4 ovarian) was 6.99 µM. It also gave a GI50 (SK-MEL-5 melanoma) of 1320 nM, a TGI (SK-MEL-5 melanoma) of 4.14 µM and a GI50 (OVCAR-8 ovarian) of 3.29 µM. The TGI (OVCAR-8 ovarian) was 11.1 µM, the GI50 (NCI-H522 lung) was 1530 nM and the TGI (NCI-H522 lung) was 3.83 µM. For the same compound, the GI50 (OVCAR-5 ovarian) was 831 nM, the TGI (OVCAR-5 ovarian) was 4.47 µM and the GI50 (SN12C renal) was 715 nM. It also gave a TGI (SN12C renal) of 2420 nM, a GI50 (TK-10 renal) of 1760 nM and a TGI (TK-10 renal) of 4.73 µM. For the same compound, the GI50 (SK-MEL-28 melanoma) was 1250 nM, the TGI (SK-MEL-28 melanoma) was 6.95 µM and the GI50 (UACC-257 melanoma) was 2170 nM. The TGI (UACC-257 melanoma) was 9.08 µM, the GI50 (A498 renal) was 2190 nM and the TGI (A498 renal) was 4.84 µM. For the same compound, the GI50 (SW-620 colon) was 1760 nM, the TGI (SW-620 colon) was 11.3 µM and the GI50 (HT29 colon) was 203 nM. The TGI (HT29 colon) was 1640 nM, the GI50 (SF-295 CNS) was 2440 nM and the TGI (SF-295 CNS) was 7.73 µM. The GI50 (SNB-75 CNS) was 1840 nM, the TGI (SNB-75 CNS) was 3.59 µM and the GI50 (HOP-92 NSCLC) was 477 nM. For the same compound, the TGI (HOP-92 NSCLC) was 1920 nM, the GI50 (MDA-MB-435 melanoma) was 691 nM and the TGI (MDA-MB-435 melanoma) was 3.56 µM. For the same compound, the GI50 (LOX IMVI melanoma) was 845 nM, the TGI (LOX IMVI melanoma) was 2070 nM and the GI50 (COLO 205 colon) was 243 nM. It also gave a TGI (COLO 205 colon) of 1030 nM, a GI50 (HCC-2998 colon) of 1170 nM and a TGI (HCC-2998 colon) of 2530 nM. It also gave a GI50 (MOLT-4 leukemia) of 1150 nM, a TGI (MOLT-4 leukemia) of 2500 nM and a GI50 (CAKI-1 renal) of 1770 nM. The TGI (CAKI-1 renal) was 4.29 µM, the GI50 (T-47D breast) was 3.84 µM and the TGI (T-47D breast) was 16.2 µM. For the same compound, the GI50 (SF-539 CNS) was 1520 nM, the TGI (SF-539 CNS) was 2920 nM and the GI50 (MDA-MB-468 breast) was 2230 nM. For the same compound, the TGI (MDA-MB-468 breast) was 4.73 µM, the GI50 (KM12 colon) was 16.3 nM and the TGI (KM12 colon) was 121 nM. For the same compound, the GI50 (NCI-H460 NSCLC) was 607 nM, the TGI (NCI-H460 NSCLC) was 2760 nM and the GI50 (MALME-3M melanoma) was 415 nM. The TGI (MALME-3M melanoma) was 3.99 µM, the GI50 (A549 NSCLC) was 1540 nM and the TGI (A549 NSCLC) was 5.24 µM. The GI50 (HS 578T breast) was 1500 nM, the TGI (HS 578T breast) was 3.07 µM and the GI50 (UO-31 renal) was 1780 nM. For the same compound, the TGI (UO-31 renal) was 5.01 µM, the GI50 (SR leukemia) was 1150 nM and the TGI (SR leukemia) was 2390 nM. The GI50 (NCI-H322M lung) was 1880 nM, the TGI (NCI-H322M lung) was 11.3 µM and the GI50 (NCI/ADR-RES ovarian) was 3.28 µM. It also gave a TGI (NCI/ADR-RES ovarian) of 11.1 µM, a GI50 (M14 melanoma) of 735 nM and a TGI (M14 melanoma) of 5.44 µM. The GI50 (RPMI-8226 leukemia) was 1560 nM, the TGI (RPMI-8226 leukemia) was 3.13 µM and the GI50 (DU-145 prostate) was 1740 nM. The TGI (DU-145 prostate) was 4.58 µM, the GI50 (HL-60(TB) leukemia) was 85.6 nM and the TGI (HL-60(TB) leukemia) was 1100 nM. For the same compound, the GI50 (MCF7 breast) was 244 nM, the TGI (MCF7 breast) was 11.6 µM and the GI50 (K-562 leukemia) was 1810 nM. It also gave a TGI (K-562 leukemia) of 4.12 µM, a GI50 ([…]-0 renal) of 1830 nM and a TGI (786-0 renal) of 4.36 µM. It also gave a GI50 (CCRF-CEM leukemia) of 2110 nM, a TGI (CCRF-CEM leukemia) of 3.94 µM and a GI50 (SNB-19 CNS) of 2790 nM. For the same compound, the TGI (SNB-19 CNS) was 8.23 µM, the GI50 (NCI-H23 lung) was 234 nM and the TGI (NCI-H23 lung) was 2640 nM. It also gave a GI50 (MDA-MB-231 breast) of 2030 nM, a TGI (MDA-MB-231 breast) of 10.4 µM and a GI50 (EKVX NSCLC) of 663 nM. It also gave a TGI (EKVX NSCLC) of 2710 nM, a GI50 (ACHN renal) of 1510 nM and a TGI (ACHN renal) of 9.76 µM. The GI50 (SK-OV-3 ovarian) was 1630 nM, the TGI (SK-OV-3 ovarian) was 5.78 µM and the GI50 (RXF 393 renal) was 1440 nM. For the same compound, the TGI (RXF 393 renal) was 2910 nM, the GI50 (UACC-62 melanoma) was 2510 nM and the TGI (UACC-62 melanoma) was 11.7 µM. For the same compound, the GI50 (U251 glioblastoma) was 3.3 µM, the TGI (U251 glioblastoma) was 12.1 µM and the GI50 (SF-268 CNS) was 1760 nM. The TGI (SF-268 CNS) was 4.77 µM, the GI50 (NCI-H226 lung) was 197 nM and the TGI (NCI-H226 lung) was 1760 nM. The GI50 (HOP-62 NSCLC) was 2480 nM, the TGI (HOP-62 NSCLC) was 9.04 µM and the GI50 (HCT-15 colon) was 1960 nM. It also gave a TGI (HCT-15 colon) of 10.1 µM, a GI50 (OVCAR-3 ovarian) of 2880 nM and a TGI (OVCAR-3 ovarian) of 12.5 µM. It also gave a GI50 (BT-549 breast) of 1830 nM and a TGI (BT-549 breast) of 4.76 µM.
